Measurements from US5994349A, “3-carboalkoxy-2, 3-dihydro-1H-phenothiazin-4[10H]-one derivatives” (priority 1997, dated 1999).
Like-named read-outs stand apart in the source and are kept apart here.

How the values were obtained:
[1] = system: maximal electroshock seizures; assay: maximal electroshock (MES) test, oral rat (Phase VIA/VIB); assay type: in vivo, male Sprague-Dawley rats; conditions: for ED50: MES, Phase VIB
Procedure: (§1) Initial evaluations for anticonvulsant activity include phases I, VIA and VIB test procedures. These tests are performed intraperitoneally in male Carworth Farms No. 1 (CF1) mice, weighing 18-25 g (Phase I) or orally in male Sprague-Dawley rats, weighing 100-150 g (Phases VIA and VIB). The evaluation is based on three tests: maximal electroshock (MES), subcutaneous (scMet), and the rotorod test for neurological toxicity (Tox). (a) Anticonvulsant Screening Project, Antiepileptic Drug Development Program, National Institutes of Health, DHEW Publ (NIH)(U.S.) 1978, NIH 78-1093. (b) Porter, R. J.; Cereghino, J. J.; Gladding, G. D.; Hessie, B. J.; Kupferberg, H. J.; Scoville, B.; White, B. G. Antiepileptic drug development program. Cleveland Clin. Q. 1984, 51, 293-305. (c) Krall, R. L.; Penry, J. K.; White, B. G.; Kupferberg, H. J.; Swinyard, E. A. Antiepileptic drug development: II. Anticonvulsant drug screening. Epilepsia 1978, 19, 400-428. In the MES test, maximal electroshock seizures are elicited with a 60- cycle alternating current of 50 mA intensity (5-7 times that necessary to elicit minimal electroshock seizures) delivered via corneal electrodes for 0.2 seconds. A drop of 0.9% saline is placed on the eye prior to application of the electrodes in order to […]. Abolition of the hind limb tonic extension component of the seizure is defined as protection and results are expressed as the number of animals protected/the number of animals tested.
(§2) To differentiate the results between different rodent species, 4b (X=H), as well as 4a (R=H), 4e (R=Cl), 4f (R=Cl) and 4i (R=CH3) are subsequently evaluated for oral (po) activity in the rat (Phase VIA or VIB).

[2] = rotorod toxicity, oral rat (Phase VIA/VIB); assay type: in vivo, male Sprague-Dawley rats; conditions: rat, in vivo, po
Procedure: as §1
(§3) The rotorod test is used to evaluate neurotoxicity. The animal is placed on a 1 inch diameter knurled plastic rod rotating at 6 rpm. Normal mice can remain on a rod rotating at this speed indefinitely.
as §2

[3] = system: pentylenetetrazol seizures; assay: subcutaneous pentylenetetrazol (scMet) test, Phase I, mice ip; assay type: in vivo, male Carworth Farms No. 1 (CF1) mice; conditions: Mus musculus, mice ip
Procedure: as §1
In the sc MET test, eighty-five mg/kg of pentylenetetrazol, which induces seizures in more than 95% of mice, is administered as a 0.5% solution subcutaneously in the posterior midline. The animal is observed for 30 minutes. Failure to observe even a threshold seizure (a single episode of clonic spasms of at least 5 seconds duration) is defined as protection and the results are expressed as the number of animals protected/ the number of animals tested. […]

[4] = stability in refluxing DMSO; assay type: physicochemical; conditions: refluxing DMSO for periods up to 40 min, forming 4m
Procedure: Without wishing to be held to any particular theory, when experimental conditions for the final step are identical for each ester, (i.e., 40 min reflux in DMSO), it is believed that the ter-butyl compound 4c (X=H) undergoes thermal decomposition to give 2,3-dihydro-1H-phenothiazin-4[10H]-one, 4d (X=H). Thermal decomposition of the desired phenothiazine 4c (X=H) to butylene and the b-keto acid (4, R=X=H) is suspected, followed by decarboxylation of the latter compound to 4d (X=H). This is substantiated by the formation of the 4c series by employing shorter reflux times in DMSO. […] Friary and coworkers have shown that 7c (R=C(CH3)3) is readily decarboxylated under acid-catalyzed conditions to form 7d (see Scheme III below). Friary, R. J.; Gilligan, J. M.; Szajewski, R. P.; Falci, K. J.; Franck, R. W. Heterocyclic syntheses via the intramolecular acylation of enamines derived from animo acids. J. Org. Chem. 1973, 38, 3487-3490. [drawing 7]

[5] = system: neurotoxicity (rotorod); assay: rotorod toxicity, oral rat (Phase VIA/VIB); assay type: in vivo, male Sprague-Dawley rats; conditions: rat oral, 30 mg/kg
Procedure: as §1, §3, §2

[6] = system: neurotoxicity (rotorod); assay: rotorod test for neurological toxicity (Tox), Phase I, mice ip; assay type: in vivo, male Carworth Farms No. 1 (CF1) mice
Procedure: as §1
The rotorod test is used to evaluate neurotoxicity. The animal is placed on a 1 inch diameter knurled plastic rod rotating at 6 rpm. Normal mice can remain on a rod rotating at this speed indefinitely. […]

[7] = system: maximal electroshock seizures; assay: maximal electroshock (MES) test, Phase I, mice ip; assay type: in vivo, male Carworth Farms No. 1 (CF1) mice; conditions: Mus musculus
Procedure: as §1
In phase I, compounds are suspended in 0.5% aqueous methylcellulose and are administered intraperitoneally at three dosage levels (30, 100, and 300 mg/kg) with anticonvulsant activity and motor impairment noted 30 min and 4 h (and in some cases 2 h and 6 h) after administration.

[8] = 0.5 h, 30 min, read-out: scMet 30 min
[9] = 4 h, read-out: MES 4 h (converted)
[10] = 0.5 h, 30 min, read-out: MES 30 min
[11] = 0.5 h, 30 min, read-out: MES 30 min (converted)

| SMILES | TD50 [2] [mg/kg] | responders at 30 mg/kg ([1]; 0.25 h) [%] | responders at 30 mg/kg ([1]; 1.00 h) [%] | responders at 30 mg/kg ([1]; 2.00 h) [%] | responders at 30 mg/kg ([1]; 4.00 h) [%] | responders at 30 mg/kg ([1]; 0.5 h, 0.50 h) [%] | responders at 30 mg/kg [3, 8] [%] | responders at 100 mg/kg [3, 8] [%] | responders at 30 mg/kg ([3]; 4 h, read-out: scMet 4 h) [%] | responders at 100 mg/kg ([3]; 4 h, read-out: scMet 4 h) [%] | Tox ([5]; 0.25 h) | Tox ([5]; 0.50 h) | Tox ([5]; 1.00 h) | Tox ([5]; 2.00 h) | Tox ([5]; 4.00 h) | Tox 30 min ([6]; 10 mg/kg) | Tox 30 min ([6]; 30 mg/kg) | Tox 4 h ([6]; 30 mg/kg) | Tox 30 min ([6]; 100 mg/kg) | Tox 4 h ([6]; 100 mg/kg) | other results |
| --- | --- | --- | --- | --- | --- | --- | --- | --- | --- | --- | --- | --- | --- | --- | --- | --- | --- | --- | --- | --- | --- |
| COC(=O)[C@@H]1C(=O)C=C(Nc2ccc(Cl)cc2)C[C@H]1C (relative stereo) [Compound 1, methyl 4-[(4'-chlorophenyl)-amino]-6-methyl-2-oxo-3-cyclohexene-1-carboxylate, reference compound] | > 380 |  |  |  |  |  |  |  |  |  |  |  |  |  |  |  |  |  |  |  | responders at 10 mg/kg ([1]; 0.25 h): 75%; responders at 10 mg/kg ([1]; 1.00 h): 100%; responders at 10 mg/kg ([1]; 2.00 h): 100%; responders at 10 mg/kg ([1]; 4.00 h): 75%; responders at 10 mg/kg ([1]; 0.5 h, 0.50 h): 100%; ED50 ([1]; first test, read-out: ED50): 5.8 mg/kg; MES (repeat test) ([1]; repeat test, 0.50 h): 3/4; MES (repeat test) ([1]; repeat test, 1.00 h): 2/4; MES (repeat test) ([1]; repeat test, 2.00 h): 1/4 |
| C[C@@H]1CC2=C(Sc3cc(Br)ccc3N2)C(=O)[C@H]1C(=O)OC(C)(C)C (relative stereo) [Compound 4l, 7-Bromo-3-carbo-ter-butoxy-2-methyl-2,3-dihydro-1H-phenothiazin-4[10H]-one] |  | 50 | 100 | 100 | 100 | 50 | 0 | 0 | 0 | 0 | 0/4 | 0/4 | 0/4 | 0/4 | 0/4 | 0/4 | 0/4 | 0/2 | 0/8 | 0/4 | responders at 300 mg/kg ([3]; 0.5 h, 30 min, read-out: scMet 30 min (converted)): 33.3%; responders at 300 mg/kg ([3]; 4 h, read-out: scMet 4 h (converted)): 0%; stability in refluxing DMSO [4]: lability of the 3-carbo-ter butoxy substituent; Tox 30 min ([6]; 300 mg/kg): 0/4; Tox 4 h ([6]; 300 mg/kg): 0/2; responders at 30 mg/kg ([7]; 4 h, read-out: MES 4 h): 0%; responders at 100 mg/kg [7, 9]: 66.7%; responders at 300 mg/kg [7, 9]: 100%; responders at 3 mg/kg ([7]; 0.5 h, 3 mg/kg, 30 min): 0%; responders at 10 mg/kg [7, 10]: 0%; responders at 30 mg/kg [7, 11]: 100%; responders at 100 mg/kg [7, 11]: 100%; responders at 300 mg/kg [7, 11]: 100% |
| CCOC(=O)[C@@H]1C(=O)C2=C(C[C@H]1C)Nc1ccccc1S2 (relative stereo) [Compound 4b, 3-Carbethoxy-2-methyl-2,3-dihydro-1H-phenothiazin-4[10H] -one] | > 500 | 75 | 50 | 0 | 100 | 25 | 0 | 0 | 0 | 0 | 0/4 | 1/2 | 0/4 | 0/4 | 0/4 | 0/4 | 0/8 | 0/4 | 0/4 | 0/2 | ED50 ([1]; repeat test, read-out: ED50 (repeat test)): 47.2 mg/kg; protective index (TD50/ED50) ([1]; repeat test (ED50 47.2, TD50 >500 mg/kg)): > 10.6; responders at 10 mg/kg [3, 8]: 0%; responders at 10 mg/kg ([3]; 4 h, read-out: scMet 4 h): 0%; Tox 4 h ([6]; 10 mg/kg): 0/2; responders at 10 mg/kg ([7]; 4 h, read-out: MES 4 h): 0%; responders at 30 mg/kg ([7]; 4 h, read-out: MES 4 h): 0%; responders at 100 mg/kg [7, 9]: 0%; responders at 10 mg/kg [7, 10]: 0%; responders at 30 mg/kg [7, 11]: 33.3%; responders at 100 mg/kg [7, 11]: 100% |
